According to ChEMBL document CHEMBL1131866, “Stereoisomeric acylamidomorpholinium carnitine analogues: selective inhibitors of carnitine palmitoyltransferase I and II” (Bioorg Med Chem Lett, 1999):

Molecular target: T1, Carnitine O-palmitoyltransferase 2, mitochondrial (Rattus norvegicus) (UniProt P18886)
T1 sequence (whole entry): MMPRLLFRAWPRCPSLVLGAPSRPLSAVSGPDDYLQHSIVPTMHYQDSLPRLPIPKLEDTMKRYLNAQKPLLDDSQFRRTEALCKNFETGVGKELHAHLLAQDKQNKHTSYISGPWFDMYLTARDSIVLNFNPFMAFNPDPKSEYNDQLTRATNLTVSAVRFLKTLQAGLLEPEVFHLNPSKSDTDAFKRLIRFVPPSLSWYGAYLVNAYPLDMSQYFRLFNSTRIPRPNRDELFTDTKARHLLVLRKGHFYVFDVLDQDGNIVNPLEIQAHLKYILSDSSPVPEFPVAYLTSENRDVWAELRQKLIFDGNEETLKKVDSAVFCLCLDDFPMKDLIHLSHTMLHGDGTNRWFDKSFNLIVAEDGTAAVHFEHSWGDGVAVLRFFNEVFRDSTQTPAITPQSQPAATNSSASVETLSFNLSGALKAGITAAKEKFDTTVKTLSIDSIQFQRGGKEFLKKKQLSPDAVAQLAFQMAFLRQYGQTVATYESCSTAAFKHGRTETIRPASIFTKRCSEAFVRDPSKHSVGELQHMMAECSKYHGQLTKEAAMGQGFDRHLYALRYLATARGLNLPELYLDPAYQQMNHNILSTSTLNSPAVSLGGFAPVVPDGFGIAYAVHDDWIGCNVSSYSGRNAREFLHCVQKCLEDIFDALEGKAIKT
Assay: Inhibitory activity against rat-liver mitochondrial Carnitine palmitoyl transferase II
Conditions: concentration not given here

inhibition: 41%
Compound: CCCCCCCCCCCCCC(=O)NC[C@H]1C[N+](C)(C)C[C@@H](CC(=O)[O-])O1
